# Source: patent US10004701B2, “Methods and compositions for treating infection” (UNIVERSITY OF ROCHESTER, priority 2012, dated 2018)
# Structures can show the parent of a compound that is named as a salt. Where two headings read alike, the source gives them in different places.
# Columns and labels:
# Test in all cases: AK assay 384-well format, Prestwick library screening
# [1] = tested on: E. cloacae; format: cell-based, Enterobacter cloacae; conditions: 50 μM final drug concentration; for fold induction at 50 µM: Enterobacter cloacae, 3 h
# [2] = tested on: P. aeruginosa; format: cell-based, Pseudomonas aeruginosa; conditions: 50 μM final drug concentration; for fold induction at 50 µM: Pseudomonas aeruginosa, 3 h
# [3] = tested on: S. aureus strain USA300-0114; format: cell-based, Staphylococcus aureus; conditions: 50 μM final drug concentration; for fold induction at 50 µM: Staphylococcus aureus, USA300, 3 h
# [4] = tested on: K. pneumoniae; format: cell-based, Klebsiella pneumoniae; conditions: 50 μM final drug concentration; for fold induction at 50 µM: Klebsiella pneumoniae, 3 h
# [5] = tested on: E. coli; format: cell-based, Escherichia coli; conditions: 50 μM final drug concentration; for fold induction at 50 µM: Escherichia coli, 3 h
# [6] = tested on: E. faecium; format: cell-based, Enterococcus faecium; conditions: 50 μM final drug concentration; for fold induction at 50 µM: Enterococcus faecium, 3 h
# [7] = tested on: A. baumannii strain 98-37-09; format: cell-based, Acinetobacter baumannii; conditions: 50 μM final drug concentration; for fold induction at 50 µM: Acinetobacter baumannii, 983709, 3 h
# [8] = 384-well format, cutoff for positive-scoring molecules 3-fold increase, read-out: AK-based Prestwick Library Screening Results, E. cloacae (increase in extracellular AK activity)
# [9] = 384-well format, cutoff for positive-scoring molecules 3-fold increase, read-out: AK-based Prestwick Library Screening Results, P. aeruginosa (increase in extracellular AK activity)
# [10] = 384-well format, cutoff for positive-scoring molecules 3-fold increase, read-out: AK-based Prestwick Library Screening Results, S. aureus (increase in extracellular AK activity)
# [11] = 384-well format, cutoff for positive-scoring molecules 3-fold increase, read-out: AK-based Prestwick Library Screening Results, K. pneumoniae (increase in extracellular AK activity)
# [12] = 384-well format, cutoff for positive-scoring molecules 3-fold increase, read-out: AK-based Prestwick Library Screening Results, E. coli (increase in extracellular AK activity)
# [13] = 384-well format, cutoff for positive-scoring molecules 3-fold increase, read-out: AK-based Prestwick Library Screening Results, E. faecium (increase in extracellular AK activity)
# [14] = 384-well format, cutoff for positive-scoring molecules 3-fold increase, read-out: AK-based Prestwick Library Screening Results, A. baumannii (increase in extracellular AK activity)
# [15] = planktonic E. cloacae, cutoff for positive-scoring molecules 3-fold increase, read-out: AK-based Prestwick Library Screening Results, E. cloacae (increase in extracellular AK activity)
# [16] = planktonic P. aeruginosa, cutoff for positive-scoring molecules 3-fold increase, read-out: AK-based Prestwick Library Screening Results, P. aeruginosa (increase in extracellular AK activity)
# [17] = planktonic S. aureus, cutoff for positive-scoring molecules 3-fold increase, read-out: AK-based Prestwick Library Screening Results, S. aureus (increase in extracellular AK activity)
# [18] = planktonic K. pneumoniae, cutoff for positive-scoring molecules 3-fold increase, read-out: AK-based Prestwick Library Screening Results, K. pneumoniae (increase in extracellular AK activity)
# [19] = planktonic E. coli, cutoff for positive-scoring molecules 3-fold increase, read-out: AK-based Prestwick Library Screening Results, E. coli (increase in extracellular AK activity)
# [20] = planktonic E. faecium, cutoff for positive-scoring molecules 3-fold increase, read-out: AK-based Prestwick Library Screening Results, E. faecium (increase in extracellular AK activity)
# [21] = planktonic A. baumannii, cutoff for positive-scoring molecules 3-fold increase, read-out: AK-based Prestwick Library Screening Results, A. baumannii (increase in extracellular AK activity)
# [22] = planktonic E. cloacae, 384-well, cutoff for positive-scoring molecules 3-fold increase, read-out: AK-based Prestwick Library Screening Results: E. cloacae (increase in extracellular AK activity)
# [23] = planktonic P. aeruginosa, 384-well, cutoff for positive-scoring molecules 3-fold increase, read-out: AK-based Prestwick Library Screening Results: P. aeruginosa (increase in extracellular AK activity)
# [24] = planktonic S. aureus, 384-well, cutoff for positive-scoring molecules 3-fold increase, read-out: AK-based Prestwick Library Screening Results: S. aureus (increase in extracellular AK activity)
# [25] = planktonic K. pneumoniae, 384-well, cutoff for positive-scoring molecules 3-fold increase, read-out: AK-based Prestwick Library Screening Results: K. pneumoniae (increase in extracellular AK activity)
# [26] = planktonic E. coli, 384-well, cutoff for positive-scoring molecules 3-fold increase, read-out: AK-based Prestwick Library Screening Results: E. coli (increase in extracellular AK activity)
# [27] = planktonic E. faecium, 384-well, cutoff for positive-scoring molecules 3-fold increase, read-out: AK-based Prestwick Library Screening Results: E. faecium (increase in extracellular AK activity)
# [28] = planktonic A. baumannii, 384-well, cutoff for positive-scoring molecules 3-fold increase, read-out: AK-based Prestwick Library Screening Results: A. baumannii (increase in extracellular AK activity)
# [29] = planktonic, cutoff for positive-scoring molecules 3-fold increase, read-out: AK-based Prestwick Library Screening Results, E. cloacae (fold increase in extracellular AK activity)
# [30] = planktonic, cutoff for positive-scoring molecules 3-fold increase, read-out: AK-based Prestwick Library Screening Results, P. aeruginosa (fold increase in extracellular AK activity)
# [31] = planktonic, cutoff for positive-scoring molecules 3-fold increase, read-out: AK-based Prestwick Library Screening Results, S. aureus (fold increase in extracellular AK activity)
# [32] = planktonic, cutoff for positive-scoring molecules 3-fold increase, read-out: AK-based Prestwick Library Screening Results, K. pneumoniae (fold increase in extracellular AK activity)
# [33] = planktonic, cutoff for positive-scoring molecules 3-fold increase, read-out: AK-based Prestwick Library Screening Results, E. coli (fold increase in extracellular AK activity)
# [34] = planktonic, cutoff for positive-scoring molecules 3-fold increase, read-out: AK-based Prestwick Library Screening Results, E. faecium (fold increase in extracellular AK activity)
# [35] = planktonic, cutoff for positive-scoring molecules 3-fold increase, read-out: AK-based Prestwick Library Screening Results, A. baumannii (fold increase in extracellular AK activity)
# [36] = 384-well format, cutoff for positive-scoring molecules 3-fold increase
compound,measurement,setting,value
CCCCOc1ccc(CC(=O)NO)cc1 [Bufexamac],fold induction at 50 µM,[1]; [8],0.6
same,fold induction at 50 µM,[2]; [9],0.5
same,fold induction at 50 µM,[3]; [10],0.4
same,fold induction at 50 µM,[4]; [11],0.5
same,fold induction at 50 µM,[5]; [12],0.5
same,fold induction at 50 µM,[6]; [13],0.9
same,fold induction at 50 µM,[7]; [14],0.5
COc1cc(OC)c(C(=O)CCCN2CCCC2)c(OC)c1 [Buflomedil hydrochloride],fold induction at 50 µM,[1]; [15],0.9
same,fold induction at 50 µM,[2]; [16],0.8
same,fold induction at 50 µM,[3]; [17],0.6
same,fold induction at 50 µM,[4]; [18],0.6
same,fold induction at 50 µM,[5]; [19],0.8
same,fold induction at 50 µM,[6]; [20],0.8
same,fold induction at 50 µM,[7]; [21],0.7
CCCCNc1cc(C(=O)O)cc(S(N)(=O)=O)c1Oc1ccccc1 [Bumetanide],fold induction at 50 µM,[1]; [8],1.3
same,fold induction at 50 µM,[2]; [9],0.8
same,fold induction at 50 µM,[3]; [10],0.7
same,fold induction at 50 µM,[4]; [11],0.7
same,fold induction at 50 µM,[5]; [12],0.9
same,fold induction at 50 µM,[6]; [13],0.9
same,fold induction at 50 µM,[7]; [14],0.8
CCCCN1CCCCC1C(=O)Nc1c(C)cccc1C (stereo not shown) [Bupivacaine hydrochloride],fold induction at 50 µM,[1]; [22],1.5
same,fold induction at 50 µM,[2]; [23],1.2
same,fold induction at 50 µM,[3]; [24],1.1
same,fold induction at 50 µM,[4]; [25],1
same,fold induction at 50 µM,[5]; [26],1.3
same,fold induction at 50 µM,[6]; [27],1
same,fold induction at 50 µM,[7]; [28],1.4
CC(NC(C)(C)C)C(=O)c1cccc(Cl)c1 (stereo not shown) [Bupropion hydrochloride],fold induction at 50 µM,[1]; [8],0.5
same,fold induction at 50 µM,[2]; [9],0.5
same,fold induction at 50 µM,[3]; [10],0.5
same,fold induction at 50 µM,[4]; [11],0.5
same,fold induction at 50 µM,[5]; [12],0.5
same,fold induction at 50 µM,[6]; [13],1
same,fold induction at 50 µM,[7]; [14],0.5
CCCCN(CCCC)CCCOC(=O)c1ccc(N)cc1 [Butacaine],fold induction at 50 µM,[1]; [29],1.4
same,fold induction at 50 µM,[2]; [30],1
same,fold induction at 50 µM,[3]; [31],0.8
same,fold induction at 50 µM,[4]; [32],0.8
same,fold induction at 50 µM,[5]; [33],0.9
same,fold induction at 50 µM,[6]; [34],0.9
same,fold induction at 50 µM,[7]; [35],0.9
CCCCOC(=O)c1ccc(N)cc1 [Butamben],fold induction at 50 µM,[1]; [29],1.7
same,fold induction at 50 µM,[2]; [30],0.9
same,fold induction at 50 µM,[3]; [31],1.1
same,fold induction at 50 µM,[4]; [32],0.6
same,fold induction at 50 µM,[5]; [33],0.8
same,fold induction at 50 µM,[6]; [34],0.8
same,fold induction at 50 µM,[7]; [35],0.7
Clc1ccc(CCC(Cn2ccnc2)Sc2c(Cl)cccc2Cl)cc1 (stereo not shown) [Butoconazole nitrate],fold induction at 50 µM,[1]; [22],0.5
same,fold induction at 50 µM,[2]; [23],0.5
same,fold induction at 50 µM,[3]; [24],0.6
same,fold induction at 50 µM,[4]; [25],0.7
same,fold induction at 50 µM,[5]; [26],0.7
same,fold induction at 50 µM,[6]; [27],3.3
same,fold induction at 50 µM,[7]; [28],2
CCCCOC(=O)c1ccc(O)cc1 [Butylparaben],fold induction at 50 µM,"[1]; planktonic, […], read-out: AK-based Prestwick Library Screening Results, E. cloacae (fold increase in extracellular AK activity)",1
same,fold induction at 50 µM,"[2]; planktonic, […], read-out: AK-based Prestwick Library Screening Results, P. aeruginosa (fold increase in extracellular AK activity)",0.6
same,fold induction at 50 µM,"[3]; planktonic, […], read-out: AK-based Prestwick Library Screening Results, S. aureus (fold increase in extracellular AK activity)",0.7
same,fold induction at 50 µM,"[4]; planktonic, […], read-out: AK-based Prestwick Library Screening Results, K. pneumoniae (fold increase in extracellular AK activity)",0.4
same,fold induction at 50 µM,"[5]; planktonic, […], read-out: AK-based Prestwick Library Screening Results, E. coli (fold increase in extracellular AK activity)",0.5
same,fold induction at 50 µM,"[6]; planktonic, […], read-out: AK-based Prestwick Library Screening Results, E. faecium (fold increase in extracellular AK activity)",0.5
same,fold induction at 50 µM,"[7]; planktonic, […], read-out: AK-based Prestwick Library Screening Results, A. baumannii (fold increase in extracellular AK activity)",0.6
O=C(O)/C=C/c1ccc(O)c(O)c1 [Caffeic acid],fold induction at 50 µM,[1]; [29],1
same,fold induction at 50 µM,[2]; [30],0.9
same,fold induction at 50 µM,[3]; [31],0.8
same,fold induction at 50 µM,[4]; [32],0.8
same,fold induction at 50 µM,[5]; [33],1
same,fold induction at 50 µM,[6]; [34],0.9
same,fold induction at 50 µM,[7]; [35],0.8
C=C1CC[C@H](O)C/C1=C/C=C1\CCC[C@]2(C)[C@@H]([C@H](C)/C=C/[C@H](C)C(C)C)CC[C@@H]12 [Calciferol],fold induction at 50 µM,[1]; [15],0.7
same,fold induction at 50 µM,[2]; [16],0.7
same,fold induction at 50 µM,[3]; [17],0.5
same,fold induction at 50 µM,[4]; [18],0.7
same,fold induction at 50 µM,[5]; [19],0.8
same,fold induction at 50 µM,[6]; [20],0.9
same,fold induction at 50 µM,[7]; [21],0.7
CN1CC[C@]23c4ccccc4N[C@H]1[C@]21CCN(C)[C@H]3Nc2ccccc21 [Calycanthine],"AK-based Prestwick Library Screening Results, E. cloacae (increase in extracellular AK activity)","[1]; planktonic E. cloacae, […]",1.2
same,"AK-based Prestwick Library Screening Results, P. aeruginosa (increase in extracellular AK activity)","[2]; planktonic P. aeruginosa, […]",0.8
same,"AK-based Prestwick Library Screening Results, S. aureus (increase in extracellular AK activity)","[3]; planktonic S. aureus, […]",0.6
same,"AK-based Prestwick Library Screening Results, K. pneumoniae (increase in extracellular AK activity)","[4]; planktonic K. pneumoniae, […]",0.7
same,"AK-based Prestwick Library Screening Results, E. coli (increase in extracellular AK activity)","[5]; planktonic E. coli, […]",0.9
same,"AK-based Prestwick Library Screening Results, E. faecium (increase in extracellular AK activity)","[6]; planktonic E. faecium, […]",0.8
same,"AK-based Prestwick Library Screening Results, A. baumannii (increase in extracellular AK activity)","[7]; planktonic A. baumannii, […]",0.8
"CC[C@@]1(O)C(=O)OCc2c1cc1n(c2=O)Cc2cc3ccccc3nc2-1 [Camptothecine (S,+)]","AK-based Prestwick Library Screening Results, E. cloacae (increase in extracellular AK activity)",[1]; [36],1.1
same,"AK-based Prestwick Library Screening Results, P. aeruginosa (increase in extracellular AK activity)",[2]; [36],0.8
same,"AK-based Prestwick Library Screening Results, S. aureus (increase in extracellular AK activity)",[3]; [36],0.7
same,"AK-based Prestwick Library Screening Results, K. pneumoniae (increase in extracellular AK activity)",[4]; [36],0.8
same,"AK-based Prestwick Library Screening Results, E. coli (increase in extracellular AK activity)",[5]; [36],0.9
same,"AK-based Prestwick Library Screening Results, E. faecium (increase in extracellular AK activity)",[6]; [36],0.9
same,"AK-based Prestwick Library Screening Results, A. baumannii (increase in extracellular AK activity)",[7]; [36],0.8
